`COc1cc2c(cc1OCCCCCC(=O)N1C[C@@H](CCl)c3c1cc(OP(=O)(O)O)c1ccccc31)N(C(=O)OCc1ccc(NC(=O)[C@H](CCCCN)NC(=O)C3(C(=O)NCCCCCN4C(=O)C=CC4=O)CCC3)cc1)C(O)[C@@H]1CCCN1C2=O` (stereo partly shown): the melting point (in general, the temperature, or range, at which the solid turns liquid) is 98 °C (dec.).

For the origin of these results see US10632210B2, “Peptidomimetic compounds and antibody-drug conjugates thereof” (Genentech, Inc., priority 2013, dated 2020).
